Test results: patent US7973075B2, “Kainate receptor-selective epimeric analogs of dysiherbaine” (priority 2007, dated 2011)
“Also recorded” adds a separate entry of the source. Read-outs that look alike come from different tables or passages of the source.

Experiments:
GluR5-2a = biological target: T1, GluR5-2a (Rattus norvegicus, UniProt P22756, DEL402-416); assay: Whole-cell patch clamp recordings, transfected HEK-293-T/17 cells, Example 2; type: cell-based; conditions: for recovery of glutamate-evoked currents after analog application, GluR5-2a: 30 μM analog; for agonist activity: analog-evoked currents from GluR5-2a receptors (words): 1 s test application of the analog at a high concentration (10-100 μM); for inhibition of glutamate-evoked current, GluR5-2a: pre-application of 1 μM analog, 10 mM glutamate; for time constant for recovery of glutamate-evoked currents, τ: after 2.5 min application of 30 μM analog
T1 construct: expressed in transfected cells; host or cells: HEK-293-T/17
T1 sequence (P22756 with tags, fused parts or gaps isoform P22756-2 limits assumed, stated change not applied): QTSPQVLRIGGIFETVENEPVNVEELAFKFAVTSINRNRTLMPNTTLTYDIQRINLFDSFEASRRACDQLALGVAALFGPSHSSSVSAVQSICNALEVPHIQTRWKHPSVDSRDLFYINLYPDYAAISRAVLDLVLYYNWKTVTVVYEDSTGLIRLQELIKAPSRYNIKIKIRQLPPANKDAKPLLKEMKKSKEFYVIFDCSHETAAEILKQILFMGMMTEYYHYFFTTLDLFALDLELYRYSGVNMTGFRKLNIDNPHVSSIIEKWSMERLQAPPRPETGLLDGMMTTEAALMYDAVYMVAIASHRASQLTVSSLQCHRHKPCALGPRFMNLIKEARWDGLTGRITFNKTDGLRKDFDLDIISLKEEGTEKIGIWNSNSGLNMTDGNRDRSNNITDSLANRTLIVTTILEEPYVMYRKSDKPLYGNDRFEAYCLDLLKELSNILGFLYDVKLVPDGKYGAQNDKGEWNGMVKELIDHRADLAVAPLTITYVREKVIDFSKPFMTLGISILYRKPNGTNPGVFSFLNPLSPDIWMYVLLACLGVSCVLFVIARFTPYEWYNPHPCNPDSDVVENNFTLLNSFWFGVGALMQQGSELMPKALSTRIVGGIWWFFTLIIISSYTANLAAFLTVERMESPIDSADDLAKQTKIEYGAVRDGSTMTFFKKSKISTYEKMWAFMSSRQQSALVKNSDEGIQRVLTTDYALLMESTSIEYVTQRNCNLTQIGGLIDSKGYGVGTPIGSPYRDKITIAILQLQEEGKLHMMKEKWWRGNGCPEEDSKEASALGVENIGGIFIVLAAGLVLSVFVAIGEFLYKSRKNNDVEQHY
Experimental: Cell Culture and Electrophysiology. HEK-293-T/17 cells were maintained in Dulbecco's modified Eagle's medium (DMEM) supplemented with 100 μg/mL penicillin, 100 μg/mL streptomycin, and 10% heat inactivated fetal bovine serum. One day before transfection, HEK-T/17 cells were plated at low density on glass coverslips coated with 100 μg/ml poly-D-lysine and 100 μg/ml collagen. Cells were transfected with receptor cDNAs ([…]) in combination with enhanced green fluorescent protein (eGFP) cDNA for visualization of transfected cells. Transfections were carried out with Fugene6 (Roche Applied Science) according to the manufacturer's protocol and used 2-3 days following transfection. Internal solution consisted of 110 mM CsF, 30 mM CsCl, 4 mM NaCl, 0.5 mM CaCl2, 10 mM HEPES, and 5 mM EGTA, and was adjusted to pH=7.3 with CsOH. The external solution contained 150 mM NaCl, 2.8 mM KCI, 2 mM CaCl2, 1 mM MgCl2, and 10 mM HEPES, adjusted to pH=7.3 with NaOH. Patch electrodes from thick-walled borosilicate glass (Warner Instruments, Hamden, Conn.) were pulled to a final resistance of 1.5 to 2.5 MO after fire polishing. […] To determine the pre-desensitization IC50 of selected analogs, several control glutamate (10 mM) applications were followed by a 2.5 minute application of various concentrations of 8-deoxy-neoDH, 9-deoxy-neoDH, or MSVIII-19, after which the analogs were co-applied with glutamate. A similar protocol was followed to measure the recovery of glutamate-evoked currents, with the exception that the analogs were not co-applied with glutamate. Whole cell patch clamp recordings were carried out using an Axopatch 200B amplifier (Axon Instruments). Data were analyzed with Origin 7.5 (OriginLab Corp.), and Prism4 (GraphPad Software Inc.); inhibition-response curves were plotted and fit with a one-site competition curve constrained to fixed minima (0) and maxima (100).
Because neoDH and its natural analog, dysiherbaine (DH), both act as KAR agonists, we tested each of the analogs for agonist activity using whole-cell patch clamp recordings. Application of saturating concentrations of glutamate (10 mM) to a transiently transfected HEK-293-T/17 cell was first done to obtain a rapidly activating and desensitizing control current; this was then followed by a test application of the analog at a high concentration (10-100 μM).
9-deoxy-neoDH and the di-deoxy antagonist, MSVIII-19, have very similar binding profiles on GluR5-2a and other subunits (Sanders et al., 2005), but both their functional activities and behavioral properties differ. 9-deoxy-neoDH elicits small but reproducible currents from GluR5-2a receptors (FIG. 8B), whereas MSVIII-19 behaves as an antagonist (Sanders et al., 2005). To further compare the activity of these compounds and the high-affinity agonist 8-deoxy-neoDH on GluR5-2a receptors, we determined their respective IC50s for pre-desensitization of the receptor (FIG. 9). Responses to 10 mM glutamate were elicited to determine the control current amplitudes for GluR5-2a expressing cells; receptors were then pre-desensitized with low concentrations of the analog (8-deoxy-neoDH or 9-deoxy-neoDH) before test co-applications with glutamate.
Several analogs, including the parent compounds DH and neoDH, induce a very stable, ligand-bound desensitized conformation of GluR5-2a and GluR6a receptors that occludes subsequent activation of the receptors for long periods of time. We measured the duration of the interaction of Group I analogs with GluR5-2a receptors by determining the time course of recovery of glutamate-evoked currents after application of the analogs (for 2.5 min) (FIG. 10). In FIG. 10A, traces on the left are representative control glutamate-evoked currents; traces on the right are glutamate-evoked currents ten minutes after exposure to 8-deoxy-neoDH, 9-deoxy-neoDH, or MSVIII-19 (each at 30 μM). […]

GluR5 = biological target: T2, GluR5 (Rattus norvegicus, UniProt P22756); assay: Patch-clamp recordings from transfected HEK 293 cells, Example 1; type: cell-based; conditions: Example 1, FIG. 3 and 5
T2 construct: expressed in transfected cells; HEK 293 (patch clamp)
T2 sequence (P22756 with tags, fused parts or gaps isoform P22756-2): as the sequence (P22756 with tags, fused parts or gaps isoform P22756-2 limits assumed, stated change not applied) above
Experimental: (§1) Non-specific binding was defined in the presence of 1 mM glutamate. The effect of these analogs on electrophysiology was assessed as follows. HEK 293 cells were transfected with receptor cDNAs in combination with eGFP cDNA. Patch-clamp recordings from transfected cells were made 24-72 hours later using a fast application system described previously (Swanson et al., NEURON 1997; 19:913-26). (See FIG. 3.)
The effect of these analogs on electrophysiology also was assessed as described above. […] The results further indicate that the C8 and C9 substituents are necessary for binding to all AMPA and KAR subunits except for GluR5 subunits. The C9 polar group must be present and in the correct spatial orientation for high-affinity GluR5 subunit binding. Inter-domain contacts mediated by residue 721S are critical determinants of binding affinity. The epimer analog 9-deoxy-neoDH mimics the binding affinity of the di-deoxy analog MSVIII-19, but acts as an agonist rather than an antagonist.

GluR2 = biological target: T3, GluR2 (Rattus norvegicus, UniProt P19491); assay: Radioligand displacement ([3H]AMPA), Example 1; type: binding
T3 construct: expressed in transfected cells; host or cells: COS-7 or HEK-T/17
T3 sequence (P19491 22-883 isoform P19491-2 limits assumed): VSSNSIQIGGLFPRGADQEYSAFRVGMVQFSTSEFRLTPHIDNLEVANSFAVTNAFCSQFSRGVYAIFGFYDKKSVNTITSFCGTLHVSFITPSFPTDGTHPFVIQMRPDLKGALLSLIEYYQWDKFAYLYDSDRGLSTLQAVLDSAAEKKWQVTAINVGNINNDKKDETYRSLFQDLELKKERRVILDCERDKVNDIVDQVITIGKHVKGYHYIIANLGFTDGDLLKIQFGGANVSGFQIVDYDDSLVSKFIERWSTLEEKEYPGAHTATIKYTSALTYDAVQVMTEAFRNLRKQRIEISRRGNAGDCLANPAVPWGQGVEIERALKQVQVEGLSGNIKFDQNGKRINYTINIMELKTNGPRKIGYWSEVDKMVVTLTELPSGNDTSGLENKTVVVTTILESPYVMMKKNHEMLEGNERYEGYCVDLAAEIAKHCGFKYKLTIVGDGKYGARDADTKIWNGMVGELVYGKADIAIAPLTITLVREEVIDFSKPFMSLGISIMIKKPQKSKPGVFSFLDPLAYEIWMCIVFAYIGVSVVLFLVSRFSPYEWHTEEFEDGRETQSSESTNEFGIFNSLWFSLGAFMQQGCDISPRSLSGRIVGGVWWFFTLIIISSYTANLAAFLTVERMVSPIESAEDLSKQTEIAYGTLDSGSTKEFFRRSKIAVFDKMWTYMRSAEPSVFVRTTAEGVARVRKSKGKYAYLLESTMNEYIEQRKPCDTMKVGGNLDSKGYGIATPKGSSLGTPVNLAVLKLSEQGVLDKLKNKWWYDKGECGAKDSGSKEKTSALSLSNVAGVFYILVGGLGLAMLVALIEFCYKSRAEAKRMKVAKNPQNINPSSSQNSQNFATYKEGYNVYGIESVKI
Experimental: (§2) Dysiherbaine (DH) was used as a template for generating novel KAR ligands. (See FIG. 1.) These included 8-deoxy and 9-deoxy analogs of neodysiherbaine (neoDH). (See FIG. 2.) The binding of these analogs to glutamate receptors was assessed by radioligand binding as follows. Membrane preparations from COS-7 or HEK-T/17 cells were isolated 2-3 days after transfection. Displacement assays were performed as described previously (Swanson et al., NEURON 1997; 19:913-26). Unlabeled marine toxin analogs were used to displace [^3H]kainate or [^3H]AMPA (PerkinElmer) from kainate and AMPA receptors, respectively. (See FIG. 2 and Table 1.)
as §1
(§3) Additional epimer analogs were generated. These included 4-epi-neodysiherbaine, 8-epi-neodysiherbaine, 9-epi-neodysiherbaine, and 8,9-epi-neodysiherbaine. (See FIG. 4.) The binding of these analogs to glutamate receptors was assessed by radioligand binding as described above. (See FIG. 4 and Table 2.)

GluR1 = biological target: T4, GluR1 (Rattus norvegicus, UniProt P19490); assay: Radioligand displacement ([3H]AMPA), Example 1; type: binding
T4 construct: expressed in transfected cells; host or cells: COS-7 or HEK-T/17
T4 sequence (P19490 19-907 isoform P19490-2 limits assumed): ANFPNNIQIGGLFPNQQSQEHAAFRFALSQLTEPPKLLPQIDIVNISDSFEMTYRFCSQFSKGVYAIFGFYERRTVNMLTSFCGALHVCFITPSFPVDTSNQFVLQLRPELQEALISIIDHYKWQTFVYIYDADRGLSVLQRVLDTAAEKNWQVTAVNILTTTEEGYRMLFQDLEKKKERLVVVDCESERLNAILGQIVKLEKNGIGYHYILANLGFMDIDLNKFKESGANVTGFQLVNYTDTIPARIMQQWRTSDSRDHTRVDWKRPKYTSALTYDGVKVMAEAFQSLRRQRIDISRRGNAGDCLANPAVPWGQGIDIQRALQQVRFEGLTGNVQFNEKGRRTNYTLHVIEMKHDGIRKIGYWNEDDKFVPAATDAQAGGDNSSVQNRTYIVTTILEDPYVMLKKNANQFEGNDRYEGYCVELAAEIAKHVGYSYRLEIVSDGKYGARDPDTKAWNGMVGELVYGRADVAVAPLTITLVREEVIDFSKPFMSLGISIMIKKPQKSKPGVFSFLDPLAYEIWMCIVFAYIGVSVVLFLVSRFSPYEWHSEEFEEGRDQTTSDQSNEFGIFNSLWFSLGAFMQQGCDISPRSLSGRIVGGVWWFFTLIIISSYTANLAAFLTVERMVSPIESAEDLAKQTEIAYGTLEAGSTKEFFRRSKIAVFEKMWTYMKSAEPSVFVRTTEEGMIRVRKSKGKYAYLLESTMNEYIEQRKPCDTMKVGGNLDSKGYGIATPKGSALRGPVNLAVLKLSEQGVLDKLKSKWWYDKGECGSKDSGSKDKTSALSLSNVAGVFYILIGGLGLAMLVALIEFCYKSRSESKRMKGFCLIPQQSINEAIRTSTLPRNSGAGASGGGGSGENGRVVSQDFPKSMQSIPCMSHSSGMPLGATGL
Experimental: as §2, §1, §3

[1] = Tables 1-2, read-out: GluR2 binding affinity (displacement of [3H]AMPA)
[2] = Tables 1-2, read-out: GluR1 binding affinity (displacement of [3H]AMPA)

| Structure (SMILES) | recovery of glutamate-evoked currents after analog application, GluR5-2a (GluR5-2a) | agonist activity: analog-evoked currents from GluR5-2a receptors (words) (GluR5-2a) | agonist or antagonist at GluR5 (electrophysiology) (GluR5) | Ki (GluR2; [1]) | Ki (GluR1; [2]) | further results |
| --- | --- | --- | --- | --- | --- | --- |
| N[C@@H](C[C@@]1(C(=O)O)CC2OCC(O)C(O)C2O1)C(=O)O (single isomer, unassigned) [2,4-epi-neoDH, 2,4-epi-neodysiherbaine] | remained associated with the GluR5-2a receptor for many minutes | failed to elicit detectable current; also recorded: antagonist (or possibly a very weak partial agonist); also recorded: fails to activate GluR5 or GluR6 receptors, even at 100 μM | – | – | – | IC50 (GluR5-2a; 10 mM glutamate in continued presence of analog, read-out: IC50 inhibition of glutamate-evoked currents, GluR5-2a): 7.5 µM; agonist activity: analog-evoked currents from GluR5-2a receptors (words) (GluR5-2a; listed as 2,4-epineoDH): fails to activate |
| N[C@@H](C[C@@]1(C(=O)O)CC2OCC(O)C(O)C2O1)C(=O)O (single isomer, unassigned) [4-epi-neoDH, 4-epi-neodysiherbaine] | remained associated with the GluR5-2a receptor for many minutes | evoked small but detectable currents; also recorded: elicits large currents; also recorded: activates | GluR5/GluR6 antagonist | – | – | – |
| NC(CC1(C(=O)O)CC2OCC(O)C(O)C2O1)C(=O)O (stereo not drawn) [8,9-epi-neoDH, 8,9-epi-neodysiherbaine] | – | failed to activate GluR5-2a-expressing cells | GluR5 antagonist | > 100 µM | > 100 µM | agonist activity: analog-evoked currents from GluR5-2a receptors (words) (GluR5-2a; listed as 8,9epi-neoDH): failed to elicit a detectable current; inhibition of glutamate-evoked currents in GluR5-2a-expressing cells (GluR5-2a; high test concentrations, data not shown): modestly inhibited |
| N[C@@H](C[C@]1(C(=O)O)C[C@H]2OC[C@@H](O)C[C@H]2O1)C(=O)O [8-deoxy-neoDH] | completely attenuated glutamate currents in response to glutamate for up to 15 min; also recorded: remained associated beyond the duration of the experiments | elicited currents; also recorded: full agonist, or a highly efficacious partial agonist; also recorded: full agonists or highly efficacious partial agonists; also recorded: GluR5 agonists | GluR5 agonists | – | – | IC50 (GluR5-2a): 0.000238 µM; inhibition of glutamate-evoked current, GluR5-2a (GluR5-2a): completely inhibited; Ki (GluR2): > 100 µM; Ki (GluR1): > 100 µM |
| NC(CC1(C(=O)O)CC2OCC(O)C(O)C2O1)C(=O)O (stereo not drawn) [8-epi-neoDH, 8-epi-neodysiherbaine] | – | elicited rapidly activating currents | GluR5 agonist | 23 µM | 17 µM | agonist activity: analog-evoked currents from GluR5-2a receptors (words) (GluR5-2a; listed as 8-epineoDH): elicited large desensitizing currents with variable kinetics |
| NC(CC1(C(=O)O)CC2OCC(F)C(O)C2O1)C(=O)O (stereo not drawn) [9-F-8-epi-neoDH] | – | elicited rapidly activating currents; also recorded: elicited large desensitizing currents with variable kinetics | – | – | – | – |
| N[C@@H](C[C@]1(C(=O)O)C[C@H]2OCC[C@@H](O)[C@H]2O1)C(=O)O [9-deoxy-neoDH] | – | elicited currents; also recorded: very weak agonist; also recorded: GluR5 agonists | GluR5 agonists | > 100 µM | > 100 µM | IC50 (GluR5-2a; 2.5 min analog application, then co-application with 10 mM glutamate, read-out: IC50 for pre-desensitization of GluR5-2a receptors): 0.151 µM; time constant for recovery of glutamate-evoked currents, τ (GluR5-2a): 1.5 s; inhibition of glutamate-evoked current, GluR5-2a (GluR5-2a): inhibited but did not abolish |
| NC(CC1(C(=O)O)CC2OCC(O)C(O)C2O1)C(=O)O (stereo not drawn) [9-epi-neoDH, 9-epi-neodysiherbaine] | – | elicited rapidly activating currents; also recorded: elicited very small amplitude, weakly desensitizing currents; also recorded: very weak partial agonists | – | > 100 µM | > 100 µM | – |
| N[C@@H](C[C@]1(C(=O)O)C[C@H]2OCCC[C@H]2O1)C(=O)O [MSVIII-19, 8,9-dideoxy-neoDH] | – | – | – | – | – | time constant for recovery of glutamate-evoked currents, τ (GluR5-2a): 1.4 s |
